Results as given in US9012398B2, “Acylated exendin-4 compounds” (priority 2006, dated 2015).
Residues, ends and D or L forms follow the SMILES beside them. Groups on a side chain read outwards from the residue. *: point of attachment. C18 diacid = O=C(O)CCCCCCCCCCCCCCCCC(=O)*; AEEA = NCCOCCOCC(=O)O

How the values were obtained:
[1] = tested on: db/db mice; test: Pharmacodynamic study using db/db mice (blood glucose after subcutaneous dosing); format: in vivo; settings: 30 nmol/kg subcutaneous
Experimental: The efficacy and duration of action were measured after dosing of 30 nmol/kg to db/db mice. Male db/db mice were shipped from Taconic, Denmark at the age of 8-10 weeks. From the time of arrival, the mice were housed under standard conditions but at 24° C. The mice were kept 10 per cage until experimentation with free access to standard chow (Altromin, Brogaarden APS., Denmark) and tap water at a normal day: light cycle (light on at 6 am). […] After this, the mice were euthanized.
After an acclimatisation period of 1 week, the blood glucose was measured by sampling from the tail tip capillary. In brief, 5 μl blood was sampled in heparinised glass capillary tubes and immediately suspended in 250 μl EBIO buffer solution (Eppendorf, Germany) in an 1.5 ml Eppendorf tube. The blood glucose concentration was measured by the glucose oxidase method at the EBIO Plus Auto analyser (Eppendorf, Germany).
The cut of value for blood glucose was 10 mM. When evaluating the mice, it was considered essential, that all 42 mice entering the experiment had blood glucose values above 10 mM, but also that the inter-mice variance was small. Therefore, if many mice were not severely diabetic, whereas some were, the start up of experiments was postponed one week and new basal blood glucose measurements were made.
Based on the basal blood glucose values, the mice were allocated to 7 groups of n=6 with matching group mean blood glucose values.
On the day of testing the basal blood glucose morning values were assessed as described above and the basal body weight of each mouse was assessed. A time 0, the compound was dosed subcutaneously in the scruff of the neck (dosing volume app. 300 μl/50 g mouse).
The blood glucose values were followed up to 48 hours (time 1, 3, 6, 24 and 48 h) and the terminal body weight was assessed.
All data were entered into Graphpad Prism where mean blood glucose and mean delta body weights were calculated.

[2] = target: T1, human GLP-1 receptor (Homo sapiens, UniProt P43220); test: Functional receptor assay: cAMP formation in plasma membranes of BHK cells expressing the cloned human GLP-1 receptor (GLP1cAMPma); format: biochemical
T1 construct: expressed in transfected cells; host or cells: BHK cells, clone BHK-467-12A; plasma membrane preparation
Summary of the method: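 cAMP formation was read by AlphaScreen after a 3 h room-temperature incubation of agonist with human GLP-1 receptor BHK membranes (6 μg/well). The pH 7.4 buffer held 10 mM MgCl2, 1 mM ATP, 1 μM GTP and 0.5 mM IBMX. EC50 values were estimated by four-parameter logistic regression.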

T1 sequence (P43220 24-463): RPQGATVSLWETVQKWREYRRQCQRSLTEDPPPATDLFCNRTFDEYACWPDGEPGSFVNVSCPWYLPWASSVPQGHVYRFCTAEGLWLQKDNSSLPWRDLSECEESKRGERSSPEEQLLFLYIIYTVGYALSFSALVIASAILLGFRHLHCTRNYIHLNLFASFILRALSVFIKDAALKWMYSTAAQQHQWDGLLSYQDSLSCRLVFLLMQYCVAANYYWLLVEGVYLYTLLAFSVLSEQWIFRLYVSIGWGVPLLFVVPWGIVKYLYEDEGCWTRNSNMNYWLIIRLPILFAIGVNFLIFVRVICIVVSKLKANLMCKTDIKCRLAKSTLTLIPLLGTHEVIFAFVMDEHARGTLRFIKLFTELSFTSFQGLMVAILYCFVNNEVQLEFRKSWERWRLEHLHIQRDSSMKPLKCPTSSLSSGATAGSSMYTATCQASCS

How did the “Delta AUC for blood glucose after 30 nmol/kg in db/db mice, 48 hours” value [1] turn out when `CC[C@H](C)[C@H](NC(=O)[C@H](Cc1ccccc1)NC(=O)[C@H](CC(C)C)NC(=O)[C@H](CCCNC(=N)N)NC(=O)[C@@H](NC(=O)[C@H](C)NC(=O)[C@H](CCC(=O)O)NC(=O)[C@H](CCC(=O)O)NC(=O)[C@H](CCC(=O)O)NC(=O)[C@H](CC(C)C)NC(=O)[C@H](CCC(N)=O)NC(=O)[C@H](CCCNC(=N)N)NC(=O)[C@H](CO)NC(=O)[C@H](CC(C)C)NC(=O)[C@H](CC(=O)O)NC(=O)[C@H](CO)NC(=O)[C@@H](NC(=O)[C@H](Cc1ccccc1)NC(=O)[C@@H](NC(=O)CNC(=O)[C@H](CCC(=O)O)NC(=O)CNC(=O)[C@@H](N)Cc1c[nH]cn1)[C@@H](C)O)[C@@H](C)O)C(C)C)C(=O)N[C@@H](CCC(=O)O)C(=O)N[C@@H](Cc1c[nH]c2ccccc12)C(=O)N[C@@H](CC(C)C)C(=O)N[C@@H](CCCNC(=N)N)C(=O)N[C@@H](CC(N)=O)C(=O)NCC(=O)NCC(=O)N1CCC[C@H]1C(=O)N[C@@H](CO)C(=O)N[C@@H](CO)C(=O)N[C@@H](CCCCNC(=O)COCCOCCNC(=O)CCCCCCCCCCCCCCCCC(=O)O)C(=O)N[C@@H](C)C(=O)N1CCC[C@H]1C(=O)N1CCC[C@H]1C(=O)N1CCC[C@H]1C(=O)N[C@@H](CO)C(N)=O` [Example 8, N-ε^34-(2-(2-(2-(17-carboxyheptadecanoylamino)ethoxy)ethoxy)acetyl) [Leu^14,Arg^12,27,Lys^34]Exendin-4(1-39)amide] (H-HGEGTFTSDLSRQLEEEAVRLFIEWLRNGGPSSK([AEEA-C18 diacid])APPPS-NH2) was run?
The value was −500 ± 122, *** mM × hour.

What about the EC50 [2] of the same molecule?
Its EC50 is 0.44 nM.
